PubChem BioAssay (NCI)
“And” between values parts separate entries of the source, which are not always exact repeats. Equal values may be shown once.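 Compound exposure: 48 hours, 5 concentrations, 96-well plates. The concentration for 50% growth inhibition is given as GI50. TGI: total growth inhibition.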

Columns and labels:
Assay in all cases: NCI tumour cell line growth inhibition, 48 h
PC-3 prostate = test system: PC-3 prostate
TK-10 renal = test system: TK-10 renal
HL-60(TB) leukemia = test system: HL-60(TB) leukemia
HOP-92 NSCLC = test system: HOP-92 NSCLC
K-562 leukemia = test system: K-562 leukemia
HS 578T breast = test system: HS 578T breast
HCT-15 colon = test system: HCT-15 colon
IGROV1 ovarian = test system: IGROV1 ovarian
SNB-75 CNS = test system: SNB-75 CNS
A549 NSCLC = test system: A549 NSCLC

`Cc1c(C(=O)Nc2ccc(N3C[C@@H](C)O[C@@H](C)C3)nc2)cccc1-c1ccc(OC(F)(F)F)cc1` was tested, and the GI50 (PC-3 prostate) was 5.44 µM and 6.68 µM, the TGI (PC-3 prostate) was 27 µM and 36.8 µM and the GI50 (TK-10 renal) was 5.48 µM and 9.98 µM. For the same compound, the TGI (TK-10 renal) was 21.2 µM and 30.3 µM, the GI50 (HL-60(TB) leukemia) was 7.25 µM and 22.7 µM and the TGI (HL-60(TB) leukemia) was > 100 µM. The GI50 (HOP-92 NSCLC) was 2.51 µM and 1.79 µM, the TGI (HOP-92 NSCLC) was 13.7 µM and 13 µM and the GI50 (K-562 leukemia) was 3.44 µM and 3.16 µM. For the same compound, the TGI (K-562 leukemia) was > 100 µM, the GI50 (HS 578T breast) was 9.09 µM and 14.1 µM and the TGI (HS 578T breast) was 49.3 µM and 43.8 µM. The GI50 (HCT-15 colon) was 12.2 µM and 16.9 µM, the TGI (HCT-15 colon) was 38.8 µM and 55.8 µM and the GI50 (IGROV1 ovarian) was 9.63 µM and 11.6 µM. For the same compound, the TGI (IGROV1 ovarian) was 37.5 µM and 33.6 µM, the GI50 (SNB-75 CNS) was 10.1 µM and 12.9 µM and the TGI (SNB-75 CNS) was 25.8 µM and 32.5 µM. For the same compound, the GI50 (A549 NSCLC) was 4.91 µM and 6.91 µM and the TGI (A549 NSCLC) was 22.1 µM and 32.1 µM.
With `CCN1CCN(C(=O)[C@]23CC[C@@H](C)[C@H](C)[C@@H]2C2=CC[C@@H]4[C@@]5(C)CCC(=O)C(C)(C)[C@@H]5CC[C@@]4(C)[C@]2(C)CC3)CC1` the GI50 (PC-3 prostate) was 0.875 µM, the TGI (PC-3 prostate) was 3.17 µM and the GI50 (TK-10 renal) was 1.27 µM. The TGI (TK-10 renal) was 4.14 µM, the GI50 (HL-60(TB) leukemia) was 0.98 µM and the TGI (HL-60(TB) leukemia) was 2.18 µM. For the same compound, the GI50 (HOP-92 NSCLC) was 0.713 µM, the TGI (HOP-92 NSCLC) was 2.06 µM and the GI50 (K-562 leukemia) was 0.994 µM. For the same compound, the TGI (K-562 leukemia) was 2.9 µM, the GI50 (HS 578T breast) was 1.07 µM and the TGI (HS 578T breast) was 2.68 µM. The GI50 (HCT-15 colon) was 0.977 µM, the TGI (HCT-15 colon) was 2.39 µM and the GI50 (IGROV1 ovarian) was 1.4 µM. It also gave a TGI (IGROV1 ovarian) of 4.85 µM, a GI50 (SNB-75 CNS) of 1.03 µM and a TGI (SNB-75 CNS) of 3.82 µM. The GI50 (A549 NSCLC) was 1.47 µM and the TGI (A549 NSCLC) was 5.98 µM.
For `CC1=CC(C)=N/C(=N/S(=O)(=O)c2cc(C)c(Cl)cc2SCc2ccccc2)NN1`, the GI50 (PC-3 prostate) was > 100 µM, the TGI (PC-3 prostate) was > 100 µM and the GI50 (TK-10 renal) was > 100 µM. For the same compound, the TGI (TK-10 renal) was > 100 µM, the GI50 (HL-60(TB) leukemia) was > 100 µM and the TGI (HL-60(TB) leukemia) was > 100 µM. For the same compound, the GI50 (HOP-92 NSCLC) was 17.9 µM, the TGI (HOP-92 NSCLC) was 62.8 µM and the GI50 (K-562 leukemia) was > 100 µM. For the same compound, the TGI (K-562 leukemia) was > 100 µM, the GI50 (HS 578T breast) was > 100 µM and the TGI (HS 578T breast) was > 100 µM. The GI50 (HCT-15 colon) was > 100 µM, the TGI (HCT-15 colon) was > 100 µM and the GI50 (IGROV1 ovarian) was > 100 µM. For the same compound, the TGI (IGROV1 ovarian) was > 100 µM, the GI50 (SNB-75 CNS) was 32.5 µM and the TGI (SNB-75 CNS) was > 100 µM. The GI50 (A549 NSCLC) was > 100 µM and the TGI (A549 NSCLC) was > 100 µM.
For `CC(C)(C)NCC(O)c1ccccc1Cl` (stereo not given), the GI50 (PC-3 prostate) was > 100 µM, the TGI (PC-3 prostate) was > 100 µM and the GI50 (TK-10 renal) was > 100 µM. The TGI (TK-10 renal) was > 100 µM, the GI50 (HL-60(TB) leukemia) was > 100 µM and the TGI (HL-60(TB) leukemia) was > 100 µM. The GI50 (HOP-92 NSCLC) was > 100 µM, the TGI (HOP-92 NSCLC) was > 100 µM and the GI50 (K-562 leukemia) was > 100 µM. The TGI (K-562 leukemia) was > 100 µM, the GI50 (HS 578T breast) was > 100 µM and the TGI (HS 578T breast) was > 100 µM. The GI50 (HCT-15 colon) was > 100 µM, the TGI (HCT-15 colon) was > 100 µM and the GI50 (IGROV1 ovarian) was > 100 µM. For the same compound, the TGI (IGROV1 ovarian) was > 100 µM, the GI50 (SNB-75 CNS) was > 100 µM and the TGI (SNB-75 CNS) was > 100 µM. For the same compound, the GI50 (A549 NSCLC) was > 100 µM and the TGI (A549 NSCLC) was > 100 µM.
For `CC1(C)OCC2OC(n3cnc4c(N)nc(Cl)nc43)C(OS(C)(=O)=O)C2O1` (stereo not given), the TGI (PC-3 prostate) was > 100 µM, the TGI (TK-10 renal) was > 100 µM and the TGI (HL-60(TB) leukemia) was > 100 µM. The TGI (HOP-92 NSCLC) was > 100 µM, the TGI (K-562 leukemia) was > 100 µM and the TGI (HS 578T breast) was > 100 µM. The TGI (HCT-15 colon) was > 100 µM, the TGI (IGROV1 ovarian) was > 100 µM and the TGI (SNB-75 CNS) was > 100 µM. The TGI (A549 NSCLC) was > 100 µM.
For `CCOC(=O)C1=C(Nc2ccc(OC)cc2)C(N)=NC1=N`, the GI50 (PC-3 prostate) was 3.26 µM, the TGI (PC-3 prostate) was > 100 µM and the GI50 (TK-10 renal) was 8.31 µM. The TGI (TK-10 renal) was > 100 µM, the GI50 (HL-60(TB) leukemia) was 3.51 µM and the TGI (HL-60(TB) leukemia) was > 100 µM. The GI50 (HOP-92 NSCLC) was 2.56 µM, the TGI (HOP-92 NSCLC) was > 100 µM and the GI50 (K-562 leukemia) was 3.02 µM. For the same compound, the TGI (K-562 leukemia) was > 100 µM, the GI50 (HS 578T breast) was 4.17 µM and the TGI (HS 578T breast) was > 100 µM. For the same compound, the GI50 (HCT-15 colon) was 1.83 µM, the TGI (HCT-15 colon) was > 100 µM and the GI50 (IGROV1 ovarian) was 5.5 µM. The TGI (IGROV1 ovarian) was > 100 µM, the GI50 (SNB-75 CNS) was 3.03 µM and the TGI (SNB-75 CNS) was > 100 µM. For the same compound, the GI50 (A549 NSCLC) was 3.73 µM and the TGI (A549 NSCLC) was > 100 µM.
`COC(=O)C1=C(C)NC(=S)NC1c1ccc(N(CCCl)CCCl)cc1Cl` (stereo not given) was tested, and the TGI (PC-3 prostate) was > 82.8 µM, the TGI (TK-10 renal) was 98.6 µM and the TGI (HL-60(TB) leukemia) was > 100 µM. For the same compound, the TGI (HOP-92 NSCLC) was > 100 µM, the TGI (K-562 leukemia) was > 57.5 µM and the TGI (HS 578T breast) was > 100 µM. The TGI (HCT-15 colon) was > 66.5 µM, the TGI (IGROV1 ovarian) was > 89.1 µM and the TGI (SNB-75 CNS) was > 100 µM. For the same compound, the TGI (A549 NSCLC) was > 58.7 µM.
`CC1=CC2(C)/C=C(C)/C=C\CC(O)/C=C3/C=CC(=C4C(=O)OC2(CC1C)C4=O)OC3` (stereo not given) showed a GI50 (PC-3 prostate) of 1.45 µM, a TGI (PC-3 prostate) of 7.89 µM and a GI50 (TK-10 renal) of 1.54 µM. The TGI (TK-10 renal) was 3.46 µM, the GI50 (HL-60(TB) leukemia) was 0.6 µM and the TGI (HL-60(TB) leukemia) was > 20.5 µM. For the same compound, the GI50 (HOP-92 NSCLC) was 0.524 µM, the TGI (HOP-92 NSCLC) was 1.54 µM and the GI50 (K-562 leukemia) was 1.2 µM. The TGI (K-562 leukemia) was > 100 µM, the GI50 (HS 578T breast) was 2.25 µM and the TGI (HS 578T breast) was 6.97 µM. It also gave a GI50 (HCT-15 colon) of 1.47 µM, a TGI (HCT-15 colon) of 3.69 µM and a GI50 (IGROV1 ovarian) of 2.93 µM. It also gave a TGI (IGROV1 ovarian) of 8.93 µM, a GI50 (SNB-75 CNS) of 2.84 µM and a TGI (SNB-75 CNS) of 17.3 µM. The GI50 (A549 NSCLC) was 3.66 µM and the TGI (A549 NSCLC) was 16.8 µM.
In the case of `CCC(=O)OCOc1ccc(/C=C2\CCC(CN(C)C)C2=O)cc1` (stereo not given), the TGI (PC-3 prostate) is reported as 27.6 µM, the TGI (TK-10 renal) is reported as 22.2 µM and the TGI (HL-60(TB) leukemia) is reported as 5.51 µM. The TGI (HOP-92 NSCLC) was 29.5 µM, the TGI (K-562 leukemia) was 4.66 µM and the TGI (HS 578T breast) was > 79 µM. The TGI (HCT-15 colon) was 9.97 µM, the TGI (IGROV1 ovarian) was 16.3 µM and the TGI (SNB-75 CNS) was 27.6 µM. The TGI (A549 NSCLC) was 40.3 µM.
`Cc1ccc2ccccc2c1CSc1nc(N)nc2c1ncn2CC(C)C` was tested, and the TGI (PC-3 prostate) was > 89.9 µM, the TGI (TK-10 renal) was > 100 µM and the TGI (HL-60(TB) leukemia) was > 100 µM. For the same compound, the TGI (HOP-92 NSCLC) was > 100 µM, the TGI (K-562 leukemia) was > 100 µM and the TGI (HS 578T breast) was > 100 µM. The TGI (HCT-15 colon) was > 100 µM, the TGI (IGROV1 ovarian) was > 100 µM and the TGI (SNB-75 CNS) was > 100 µM. The TGI (A549 NSCLC) was > 100 µM.
Compound `CC1Cc2c(Cl)ncnc2N(C)c2ccccc21` (stereo not given) has a GI50 (PC-3 prostate) of 3.9 µM, a TGI (PC-3 prostate) of 66.9 µM and a GI50 (TK-10 renal) of 2.57 µM. It also gave a TGI (TK-10 renal) of 8.87 µM, a GI50 (HL-60(TB) leukemia) of 3.39 µM and a TGI (HL-60(TB) leukemia) of 15 µM. For the same compound, the GI50 (HOP-92 NSCLC) was 2.34 µM, the TGI (HOP-92 NSCLC) was 7.17 µM and the GI50 (K-562 leukemia) was 4.44 µM. For the same compound, the TGI (K-562 leukemia) was > 100 µM, the GI50 (HS 578T breast) was 1.36 µM and the TGI (HS 578T breast) was 47.3 µM. It also gave a GI50 (HCT-15 colon) of 3 µM, a TGI (HCT-15 colon) of 11.3 µM and a GI50 (IGROV1 ovarian) of 3.78 µM. The TGI (IGROV1 ovarian) was > 100 µM, the GI50 (SNB-75 CNS) was 0.352 µM and the TGI (SNB-75 CNS) was 33.5 µM. The GI50 (A549 NSCLC) was 4.85 µM and the TGI (A549 NSCLC) was > 100 µM.
